# Target: T1, Platelet-activating factor acetylhydrolase (Homo sapiens, UniProt Q13093)
# T1 sequence (Q13093 whole entry): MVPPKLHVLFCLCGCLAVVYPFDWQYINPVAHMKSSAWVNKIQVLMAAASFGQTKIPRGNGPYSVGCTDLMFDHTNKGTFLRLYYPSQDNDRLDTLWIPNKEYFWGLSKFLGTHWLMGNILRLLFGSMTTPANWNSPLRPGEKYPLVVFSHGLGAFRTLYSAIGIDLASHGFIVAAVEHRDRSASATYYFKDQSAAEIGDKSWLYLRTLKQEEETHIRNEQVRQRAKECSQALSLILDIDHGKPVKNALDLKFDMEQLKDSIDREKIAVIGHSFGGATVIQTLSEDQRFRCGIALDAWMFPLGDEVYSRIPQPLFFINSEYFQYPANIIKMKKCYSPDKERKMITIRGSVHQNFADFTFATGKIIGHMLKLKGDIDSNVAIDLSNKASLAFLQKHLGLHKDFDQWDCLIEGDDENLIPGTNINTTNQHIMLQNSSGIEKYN
# Experiment: Inhibitory activity against recombinant human Lp-PLA2 (Lp-PLA2).
row,IC50,SMILES
1,0.2 nM,COc1ncc(Cc2cn(CC(=O)N(C)Cc3ccc(-c4ccc(C(F)(F)F)cc4)cc3)c(SCc3ccc(F)cc3)nc2=O)cn1
2,4 nM,Cn1cc(Cc2cn(CCCC(=O)NCc3ccc(-c4ccc(F)cc4)cc3)c(SCc3ccc(F)cc3)nc2=O)cn1
3,5 nM,Cn1cc(Cc2cn(CCCC(=O)NCc3ccc(-c4ccccc4)cc3)c(SCc3ccc(F)cc3)nc2=O)cn1
4,0.8 nM,CN(Cc1ccc(-c2ccc(Cl)cc2)cc1)C(=O)Cn1cc(Cc2cnc(N(C)C)nc2)c(=O)nc1SCc1ccc(F)cc1
5,4 nM,COc1ncc(Cc2cn(CCCC(=O)NCc3ccc(-c4ccccc4)cc3)c(SCc3ccc(F)cc3)nc2=O)cn1
6,0.6 nM,COc1ncc(Cc2cn(CC(=O)N(C)Cc3ccc(-c4ccc(F)cc4)cc3)c(SCc3ccc(F)cc3)nc2=O)cn1
7,5 nM,COc1ncc(Cc2cn(CCCC(=O)N(C)Cc3ccc(-c4ccc(Cl)cc4)cc3)c(SCc3ccc(F)cc3)nc2=O)cn1
8,194 nM,O=C(Cn1cc(Cc2cncnc2)c(=O)nc1SCc1ccc(F)cc1)NCc1ccccc1-c1ccccc1
9,4 nM,O=C(Cn1cc(Cc2cncnc2)c(=O)nc1SCc1ccc(F)cc1)NCc1ccc(-c2ccccc2)cc1
10,8 nM,CN(Cc1ccc(-c2ccccc2)cc1)C(=O)Cn1cc(Cc2cncnc2)c(=O)nc1SCc1ccc(F)cc1
11,4 nM,COc1ncc(Cc2cn(CCCC(=O)NCc3ccc(-c4ccc(Cl)cc4)cc3)c(SCc3ccc(F)cc3)nc2=O)cn1
12,0.5 nM,CCn1cc(Cc2cn(CC(=O)N(C)Cc3ccc(-c4ccc(Cl)cc4)cc3)c(SCc3ccc(F)cc3)nc2=O)cnc1=O
13,24 nM,O=C(Cn1cc(Cc2cncnc2)c(=O)nc1SCc1ccc(F)cc1)NCc1cccc(-c2ccccc2)c1
14,5 nM,CN(Cc1ccc(-c2ccc(Cl)cc2)cc1)C(=O)Cn1cc(Cc2cnc(C(F)(F)F)nc2)c(=O)nc1SCc1ccc(F)cc1
15,1 nM,CN(Cc1ccc(-c2ccc(Cl)cc2)cc1)C(=O)Cn1cc(Cc2cnc(N3CCOCC3)nc2)c(=O)nc1SCc1ccc(F)cc1
16,0.5 nM,COc1ncc(Cc2cn(CC(=O)NCc3ccc(-c4ccc(Cl)cc4)cc3)c(SCc3ccc(F)cc3)nc2=O)cn1
17,8 nM,CN(Cc1ccc(-c2ccc(F)cc2)cc1)C(=O)CCCn1cc(Cc2cnn(C)c2)c(=O)nc1SCc1ccc(F)cc1

# Reference: ChEMBL document CHEMBL1135094, “Potent, orally active inhibitors of lipoprotein-associated phospholipase A(2): 1-(biphenylmethylamidoalkyl)-pyrimidones” (Bioorg Med Chem Lett, 2002)
